Values of other authors, collected in PMC4258163 (Bioorganic & medicinal chemistry letters, 2014).

Assays:
animal model of anxiety = details: versus selective FAAH or TRPV1 inhibitors
[1] = systemic administration, mice

Structure (SMILES) | Effectiveness in an animal model of anxiety (animal model of anxiety) | Hyperthermia [1] | excess of anandamide in the blood of patients (osteoarthritis pain; patients treated with the inhibitor) | Efficacy in treating osteoarthritis pain (osteoarthritis pain; phase II clinical trial, compared with naproxen)
CCCCC/C=C\C/C=C\C/C=C\C/C=C\CCCC(=O)NCCc1c[nH]c2ccc(O)cc12 [AA-5-HT, N-arachidonoyl serotonin] | more effective | did not cause hyperthermia | – | –
O=C(Nc1cccnn1)N1CCC(=Cc2cccc(Oc3ccc(C(F)(F)F)cn3)c2)CC1 [PF-04457845] | – | – | greater than 10 fold | lack of efficacy
